Data from paper PMC9869995, “Discovery of benzochromene derivatives first example with dual cytotoxic activity against the resistant cancer cell MCF-7/ADR and inhibitory effect of the P-glycoprotein expression levels” (Journal of Enzyme Inhibition and Medicinal Chemistry, 2023).

Assays:
HFL-1 = experiment: Cytotoxicity against normal cell line HFL-1; format: cell-based; settings: Homo sapiens, HFL1, 24 h, mean ± standard error
Text: (§1) According to previous reports regarding the cytotoxic features of a numerous array of benzochromene scaffolds, compounds 4a − z have been elected to explore their cytotoxic ability against three tumour cell lines, including HCT-116 (colon cancer), MCF-7 (breast cancer), and HepG-2 (hepatocellular cancer), and employing the 3–(4,5-dimethylthiazol-2-yl)-2,5-diphenyl tetrazolium bromide (MTT) colorimetric assay as described in literature. Judges choice of such cell lines has been stimulated by the acknowledged antitumor performance of a substantial number of 1H-benzo[f]chromene and 4H-benzo[h]chromene molecules towards the asserted cell lines. […] Moreover, benzochromene derivatives with highly cytotoxic behaviour, 4a − d, 4g, 4i, 4k, 4n, 4q, 4 u, and 4w, are subjected to further inspection against ADR-resistant human breast cancer cells (MCF-7/ADR) and the two normal cell lines, HFL-1 and human diploid fibroblasts (WI-38). […] Also, the results are illustrated in Table 4.
(§2) The cytotoxic activity was appraised, using the 3–(4,5-dimethylthiazol-2-yl)-2,5-diphenyl-tetrazolium bromide (MTT) colorimetric assay, as reported previously[57] and ELISA assay for MCF-7/ADR[75].

HepG-2 = experiment: MTT cell viability assay, HepG-2; format: cell-based; settings: Homo sapiens, HepG2, 24 h incubation, mean ± standard error
Text: as §1
(§3) The tumour cell lines MCF-7, HepG-2, and […] were obtained from the American Type Culture Collection (ATCC, Rockville, MD). The cells were grown on RPMI-1640 medium supplemented with 10% inactivated foetal calf serum and 50 µg/mL gentamycin. The cells were maintained at 37 °C in a humidified atmosphere with 5% CO2 and were subculture two to three times a week.
as §2

HCT-116 = experiment: MTT cell viability assay, HCT-116; format: cell-based; settings: Homo sapiens, 24 h incubation, mean ± standard error
Text: as §1, §2

MCF-7 = experiment: MTT cell viability assay, MCF-7; format: cell-based; settings: Homo sapiens, MCF7, 24 h incubation, mean ± standard error
Text: as §1, §3, §2

WI-38 = experiment: Cytotoxicity against normal cell line WI-38; format: cell-based; settings: Homo sapiens, 24 h, mean ± standard error
Text: as §1, §2

MCF-7/ADR = experiment: Cytotoxicity against ADR-resistant breast cancer cells; format: cell-based, human; settings: 24 h exposure, mean ± standard error
Text: as §1, §2

[1] = Homo sapiens, NCI/ADR-RES, 24 h

| SMILES | IC50 (HCT-116) | IC50 (MCF-7) | melting point | IC50 (HFL-1) | IC50 (HepG-2) | IC50 (WI-38) | IC50 (MCF-7/ADR; [1]) | IC50 (MCF-7/ADR) |
| --- | --- | --- | --- | --- | --- | --- | --- | --- |
| COc1ccc2ccc3c(c2c1)C(c1c(F)cccc1F)C(C#N)=C(N)O3 (centres unmarked) [4l, 3-Amino-1–(2,6-difluorophenyl)-9-methoxy-1H-benzo[f]chromene-2-carbonitrile] | 77.7 ± 0.3 µM | 15.4 ± 0.2 µM | 305 to 306 °C |  | 28.5 ± 0.4 µM |  |  |  |
| COc1ccc2ccc3c(c2c1)C(c1cccc(Cl)c1Cl)C(C#N)=C(N)O3 (centres unmarked) [4m, 3-Amino-1–(2,3-dichlorophenyl)-9-methoxy-1H-benzo[f]chromene-2-carbonitrile] | 42 ± 0.2 µM | 9.1 ± 0.2 µM | 310 to 311 °C |  | 11.8 ± 0.2 µM |  |  |  |
| COc1ccc2ccc3c(c2c1)C(c1ccc(Cl)cc1Cl)C(C#N)=C(N)O3 (centres unmarked) [4n, 3-Amino-1–(2,4-dichlorophenyl)-9-methoxy-1H-benzo[f]chromene-2-carbonitrile] | 1.7 ± 0.2 µM | 1.8 ± 0.1 µM | 261 to 262 °C | 71.7 ± 0.1 µM | 7.3 ± 0.2 µM | 61.9 ± 0.3 µM | 10.9 to 15.5 µM | 15.5 ± 0.2 µM |
| COc1ccc2ccc3c(c2c1)C(c1cc(Cl)ccc1Cl)C(C#N)=C(N)O3 (centres unmarked) [4o, 3-Amino-1–(2,5-dichlorophenyl)-9-methoxy-1H-benzo[f]chromene-2-carbonitrile] | 8.3 ± 0.2 µM | 3.8 ± 0.3 µM | 268 to 269 °C |  | 46.6 ± 0.1 µM |  |  |  |
| COc1ccc2ccc3c(c2c1)C(c1c(Cl)cccc1Cl)C(C#N)=C(N)O3 (centres unmarked) [4p, 3-Amino-1–(2,6-dichlorophenyl)-9-methoxy-1H-benzo[f]chromene-2-carbonitrile] | 18.9 ± 0.2 µM | 41.5 ± 0.1 µM | 321 to 322 °C |  | 25.9 ± 0.3 µM |  |  |  |
| COc1ccc2ccc3c(c2c1)C(c1cc(Br)ccc1Br)C(C#N)=C(N)O3 (centres unmarked) [4r, 3-Amino-1–(2,5-dibromophenyl)-9-methoxy-1H-benzo[f]chromene-2-carbonitrile] | 5.3 ± 0.4 µM | 4.9 ± 0.5 µM | 260 to 262 °C | 38.1 ± 0.2 µM | 6.8 ± 0.5 µM | 33.9 ± 0.4 µM |  |  |
| COc1ccc2ccc3c(c2c1)C(c1ccc(C(F)(F)F)cc1F)C(C#N)=C(N)O3 (centres unmarked) [4u] | 14.7 ± 2.3 µM | 0.2 µM | 237 to 239 °C | 55.3 ± 0.1 µM | 10.6 ± 0.9 µM | 60.3 ± 0.1 µM | 19.7 ± 0.8 µM |  |
| COc1ccc(C2C(C#N)=C(N)Oc3ccc4ccc(OC)cc4c32)c(OC)c1 (centres unmarked) [4v, 3-Amino-1–(2,4-dimethoxyphenyl)-9-methoxy-1H-benzo[f]chromene-2-carbonitrile] | 49.9 ± 0.5 µM | 100 ± 0.2 µM | 218 to 220 °C |  | 93.2 ± 0.2 µM |  |  |  |
| COc1ccc2ccc3c(c2c1)C(c1ccc(OC)c(OC)c1OC)C(C#N)=C(N)O3 (centres unmarked) [4x, 3-Amino-1–(2,3,4-trimethoxyphenyl)-9-methoxy-1H-benzo[f]chromene-2-carbonitrile] | 36.6 ± 0.1 µM | 96.1 ± 0.6 µM | 239 to 240 °C |  | 59.7 ± 0.3 µM |  |  |  |
| COc1ccc2ccc3c(c2c1)C(c1cc(OC)c(OC)c(OC)c1)C(C#N)=C(N)O3 (centres unmarked) [4y, 3-Amino-1–(3,4,5-trimethoxyphenyl)-9-methoxy-1H-benzo[f]chromene-2-carbonitrile] | 15.4 ± 0.1 µM | 26.1 ± 0.1 µM | 260 to 261 °C | 34.1 ± 0.2 µM | 8.8 ± 0.2 µM | 29.9 ± 0.4 µM |  |  |
| COc1ccc2ccc3c(c2c1)C(c1cc(Br)cc(Br)c1OC)C(C#N)=C(N)O3 (centres unmarked) [4z, 3-Amino-1–(3,5-dibromo-2-methoxyphenyl)-9-methoxy-1H-benzo[f]chromene-2-carbonitrile] | 6.8 ± 0.1 µM | 5.8 ± 0.04 µM | 263 to 264 °C | 33.3 ± 0.1 µM | 3.5 ± 0.2 µM | 39.6 ± 0.4 µM |  |  |
| CC[C@]1(O)C[C@@H]2CN(CCc3c([nH]c4ccccc34)[C@@](C(=O)OC)(c3cc4c(cc3OC)N(C)[C@H]3[C@@](O)(C(=O)OC)[C@H](OC(C)=O)[C@]5(CC)C=CCN6CC[C@]43[C@@H]65)C2)C1 [Vinblastine, reference compound] | 3.2 ± 0.1 µM | 7.5 ± 0.03 µM |  |  | 5.7 ± 0.1 µM |  |  |  |

Further lines, with some results ahead:

| IC50 (HCT-116) | IC50 (MCF-7) | melting point | SMILES | IC50 (HFL-1) | IC50 (HepG-2) | IC50 (WI-38) | IC50 (MCF-7/ADR; [1]) | IC50 (MCF-7/ADR) |
| --- | --- | --- | --- | --- | --- | --- | --- | --- |
| 6.4 ± 0.1 µM | 16.5 ± 0.1 µM | 267 to 268 °C | COc1ccc2ccc3c(c2c1)C(c1ccc(F)cc1)C(C#N)=C(N)O3 (centres unmarked) [4a, 3-Amino-1–(4-fluorophenyl)-9-methoxy-1H-benzo[f]chromene-2-carbonitrile] | 45.1 ± 0.2 µM | 11.3 ± 0.1 µM | 56.7 ± 1.1 µM | 24.4 ± 1.2 µM |  |
| 5.9 ± 0.4 µM | 8.3 ± 0.6 µM | 273 to 275 °C | COc1ccc2ccc3c(c2c1)C(c1ccccc1Br)C(C#N)=C(N)O3 (centres unmarked) [4e, 3-Amino-1–(2-bromophenyl)-9-methoxy-1H-benzo[f]chromene-2-carbonitrile] | 49.5 ± 1.1 µM | 4.9 ± 0.2 µM | 59.1 ± 1.1 µM |  |  |
| 11.5 ± 1.1 µM | 69.2 ± 0.3 µM | 263 to 265 °C | COc1ccc2ccc3c(c2c1)C(c1cccc(Br)c1)C(C#N)=C(N)O3 (centres unmarked) [4f, 3-Amino-1–(3-bromophenyl)-9-methoxy-1H-benzo[f]chromene-2-carbonitrile] |  | 63.6 ± 3.2 µM |  |  |  |
| 2.2 ± 0.1 µM | 5.6 ± 0.1 µM | 252 to 253 °C | COc1ccc2ccc3c(c2c1)C(c1ccc(Br)cc1)C(C#N)=C(N)O3 (centres unmarked) [4g, 3-Amino-1–(4-bromophenyl)-9-methoxy-1H-benzo[f]chromene-2-carbonitrile] | 65.3 ± 0.1 µM | 2 ± 0.1 µM | 69 ± 1.1 µM | 19.6 ± 1 µM |  |
| 27.7 ± 0.3 µM | 48.4 ± 0.1 µM | 227 to 228 °C | COc1ccc2ccc3c(c2c1)C(c1ccc(I)cc1)C(C#N)=C(N)O3 (centres unmarked) [4h, 3-Amino-1–(4-iodophenyl)-9-methoxy-1H-benzo[f]chromene-2-carbonitrile] |  | 39.2 ± 0.2 µM |  |  |  |
| 2.9 ± 0.1 µM | 7 ± 0.1 µM | 245 to 246 °C | COc1ccc2ccc3c(c2c1)C(c1ccc(C)cc1)C(C#N)=C(N)O3 (centres unmarked) [4i, 3-Amino-1–(4-methylphenyl)-9-methoxy-1H-benzo[f]chromene-2-carbonitrile] | 71.6 ± 0.3 µM | 8.8 ± 0.2 µM | 61.7 ± 0.1 µM | 42.8 ± 2.4 µM |  |
| 20.2 ± 1.1 µM | 26.8 ± 1.8 µM | 212 to 214 °C | COc1ccc2ccc3c(c2c1)C(c1ccc(C(F)(F)F)cc1)C(C#N)=C(N)O3 (centres unmarked) [4j, 3-Amino-1–(4-trifluoromethylphenyl)-9-methoxy-1H-benzo[f]chromene-2-carbonitrile] |  | 5.3 ± 0.1 µM |  |  |  |
| 15 ± 2.6 µM | 13.6 ± 0.2 µM | 268 to 270 °C | COc1ccc2ccc3c(c2c1)C(c1cc(Br)cc(Br)c1)C(C#N)=C(N)O3 (centres unmarked) [4s, 3-Amino-1–(3,5-dibromophenyl)-9-methoxy-1H-benzo[f]chromene-2-carbonitrile] |  | 13.4 ± 1.1 µM |  |  |  |
| 96.5 ± 2 µM | 100 ± 1.3 µM | 292 to 294 °C | COc1ccc2ccc3c(c2c1)C(c1c(F)cccc1Cl)C(C#N)=C(N)O3 (centres unmarked) [4t, 3-Amino-1–(2-chloro-6-fulorophenyl)-9-methoxy-1H-benzo[f]chromene-2-carbonitrile] |  | 48.1 ± 1.3 µM |  |  |  |
